In PubChem BioAssay (NCI):
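Compound exposure: 48 hours, 5 concentrations, 96-well plates. Here, GI50 denotes the concentration required for 50% inhibition of growth. TGI marks complete inhibition of growth.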

Experiments:
Experiment in all cases: NCI-60 cell line screen, 48 h
[1] = system: ACHN renal
[2] = system: EKVX NSCLC
[3] = system: HL-60(TB) leukemia
[4] = system: K-562 leukemia
[5] = system: MOLT-4 leukemia
[6] = system: OVCAR-4 ovarian
[7] = system: RPMI-8226 leukemia
[8] = system: SK-OV-3 ovarian
[9] = system: UACC-62 melanoma
[10] = system: OVCAR-8 ovarian

Structure (SMILES) | GI50 [1] [µM] | TGI [1] [µM] | GI50 [2] [µM] | TGI [2] [µM] | GI50 [3] [µM] | TGI [3] [µM] | GI50 [4] [µM] | TGI [4] [µM] | GI50 [5] [µM] | TGI [5] [µM] | GI50 [6] [µM] | TGI [6] [µM] | GI50 [7] [µM] | TGI [7] [µM] | GI50 [8] [µM] | TGI [8] [µM] | GI50 [9] [µM] | TGI [9] [µM] | GI50 [10] [µM] | TGI [10] [µM]
NS(=O)(=O)c1ccc(C2C3=C(CCCC3=O)OC3=C2C(=O)c2ccccc2C3=O)cc1 (centres undefined) | 1.24 | 2.53 | 0.699 | 2.53 | 0.254 | 0.559 | 0.46 | 2.35 | 0.293 | 0.848 | 0.19 | 0.824 | 0.41 | 1.99 | 1.99 | 3.76 | 0.24 | 0.567 |  | 
COc1cc2c(c(OC)c1OC)-c1ccc(NNC(=S)N(Cc3cccc(C[N+](Cc4cccc(CNC56CC7CC(CC(C7)C5)C6)c4)(Cc4cccc(CNC56CC7CC(CC(C7)C5)C6)c4)Cc4cccc(CN(C(=S)NNc5ccc6c(cc5=O)[C@@H](NC(C)=O)CCc5cc(OC)c(OC)c(OC)c5-6)C56CC7CC(CC(C7)C5)C6)c4)c3)C34CC5CC(CC(C5)C3)C4)c(=O)cc1[C@@H](NC(C)=O)CC2 (some centres undefined) | 3.68 | 7.99 | 2.68 | 8.46 | 0.168 | 1.03 |  |  | 0.562 | 1.93 | 2.17 | 8.94 | 0.757 | 1.76 | 3 | 7.51 | 1.61 | 6.38 | 2.03 | 7.49
c1cc(C2CCCCC2)ccc1OCCCCCCN1CCNCC1 | 1.78 | 3.33 | 5.76 | 47.3 | 1.54 | 3.32 | 1.46 | 3.11 |  |  | 1.95 | 4.52 |  |  | 4.16 | 15.2 | 1.86 | 3.81 |  | 
ON(CCc1ccncc1)Cc1ccccc1 |  | > 100 |  | > 100 |  |  |  | > 100 |  | > 100 |  | > 100 |  | > 100 |  | > 100 |  | > 100 |  | > 100
O=CN1N=C(c2ccc(Nc3ccnc4cc(Cl)ccc34)cc2)CC1c1ccccc1 (centres undefined) | 4.21 | 84.4 | 4.94 | > 100 | 2.66 | 6.21 |  |  | 2.28 | 6.4 | 3.88 | > 100 | 2.55 | 12.3 | 11.3 | > 100 | 1.55 | 4.16 | 4.53 | > 100
Cc1[nH]c(C(=O)Nc2ccc(C(=O)N3CCNCC3)cc2OC(C)C)c(Cl)c1Cl | 1.68 | 3.07 | 3.49 | 15 | 2.21 | 4.44 | 2.15 | 4.71 | 2.32 | 5.1 | 3.57 | 11.8 | 2.31 | 5.51 |  |  | 1.8 | 3.38 | 2.25 | 5.32
CS(=O)(=O)N(CCC#N)c1ccc(/C=N/NC(=O)CC(=O)Nc2cccc(Cl)c2)cc1 |  | > 100 |  | > 100 |  |  |  | > 100 |  | > 100 |  | > 100 |  | > 100 |  | > 100 |  | > 100 |  | > 100
C=C1C(=O)O[C@H]2[C@H]1CC/C(CNC(=O)/C=C/c1cccc(OC)c1)=C\CC[C@@]1(C)O[C@@H]21 | 1.14 | 2.67 | 1.85 | 5.62 |  |  | 1.31 | 18.6 | 2.12 | 7.36 | 1.69 | 4.79 | 1.31 | 4.97 | 11.2 | 23.3 | 1.43 | 2.92 | 2.19 | 8.07
N#CCCN(CCC#N)c1ccc(/C=C2\N=C(COc3ccc(Cl)cc3Cl)OC2=O)cc1 |  |  |  | > 100 |  | > 100 |  | > 100 |  | > 100 |  | > 100 |  | > 100 |  | > 100 |  | > 100 |  | > 100
O=c1[nH]c(-c2ccccc2)nc2ccc(Cl)cc12 |  | > 100 |  | > 100 |  |  |  | > 100 |  | > 100 |  | > 100 |  | > 100 |  |  |  |  |  | > 100
Cc1ccc2c[c]1[Hg][CH2]COS2(=O)=O | 16.2 | 29.7 | 21.5 | 38.5 | 21.8 | 42.1 | 16.4 | 41.2 | 18.1 | 34.1 | 11.3 | 23.4 |  |  | > 100 | > 100 | 17.2 | 30.9 | 16 | 29.5
O=C(Cn1c(=O)c(-c2ccccc2)nc2ccccc21)c1cccnc1 | > 100 | > 100 | > 100 | > 100 |  |  | > 100 | > 100 | > 100 | > 100 | 46.2 | > 100 | > 100 | > 100 | > 100 | > 100 | > 100 | > 100 | > 100 | > 100
O=C(CC1(O)C(=O)Nc2ccc(Br)cc21)c1ccc(Cl)cc1 (centres undefined) |  | > 100 |  | > 100 |  |  |  | > 100 |  | > 100 |  | > 100 |  | > 100 |  | > 100 |  | > 100 |  | > 100
Cc1ccccc1S(=O)(=O)N1[C@H](c2ccc(Cl)cc2)C(C(=O)N[C@@H](Cc2ccccc2)C(N)=O)=C[C@@H]1C(C)(C)C | 2.95 | 9.83 |  |  | 9.6 | 31.2 | 7.1 | 35.4 | 4.87 | 31.3 | 6.25 | 13.4 | 3.07 | 26.7 | 8.5 | 21.7 | 5.76 | 12.8 | 5.95 | 25.4
N#Cc1c2ccccc2c2n1-c1ccccc1OC(c1ccccc1)C2=O (centres undefined) | 3.73 | > 100 |  |  | 2.83 | 6.03 | 3.19 | 13.9 | 4.47 | 19.6 | 2.43 | 8.44 | 2.75 | 9.07 | 6.03 | 48.6 | 3.81 | 18 | 3.26 | 15.7
N#Cc1cccc(C(=O)c2cnn(-c3ccc(F)cc3)c2N)c1 | > 25 | > 25 |  |  | > 25 | > 25 | > 25 | > 25 | > 25 | > 25 | > 25 | > 25 | > 25 | > 25 | > 25 | > 25 | > 25 | > 25 | > 25 | > 25

Structure (SMILES) | GI50 [1] [µM] | TGI [1] [µM] | GI50 [2] [µM] | TGI [2] [µM] | GI50 [3] [µM] | TGI [3] [µM] | GI50 [4] [µM] | TGI [4] [µM] | GI50 [5] [µM] | TGI [5] [µM] | GI50 [6] [µM] | TGI [6] [µM] | GI50 [7] [µM] | TGI [7] [µM] | GI50 [8] [µM] | TGI [8] [µM] | GI50 [9] [µM] | TGI [9] [µM] | GI50 [10] [µM] | TGI [10] [µM]
O=[N+]([O-])c1cc(O)c(O)cc1-c1cn2ccsc2n1 | 42.6 | > 100 | > 100 | > 100 |  |  |  |  | 75.9 | > 100 | 69.7 | > 100 | 54.6 | > 100 | > 100 | > 100 | 54.2 | > 100 | 52.5 | > 100
CSc1ccc(-c2cc(-c3ccc(NC(=O)CCCN4CCCC4)cc3)nc(-c3ccc(NC(=O)CCCN4CCCC4)cc3)c2)cc1 | 3.65 | 13.9 |  |  | 6.54 | 23.5 | 1.64 | 3.31 | 1.79 | 3.62 | 2.91 | 12.9 | 2.16 | 4.56 | 2.97 | 8.74 | 11.9 | 32.4 | 3.3 | 13.6
CN(C)c1ccc(/C=C/C(=O)C(C)(C)C)cc1Br |  | > 100 |  | > 100 |  |  |  | 86.3 |  | 71.7 |  | 52.2 |  | 58.7 |  | > 100 |  | 34.2 |  | 54.1
CN(C)/C=C/c1nnnn1-c1ccc(Cl)cc1 | 24.7 | > 100 | 30.9 | 82.8 |  |  | 19.6 | > 100 | 3.51 | > 100 | 28.2 | 80.4 | 3.38 | 18.5 | 24.1 | 81.6 | 8.22 | 31.4 | 11.2 | 64.4
NC1C2C(CC(=O)O)OCC=C3CN4CCC1(C(=O)C(=O)O)C4CC32 (centres undefined) |  | > 100 |  | > 100 |  | > 100 |  | > 100 |  | > 100 |  | > 100 |  |  |  | > 100 |  | > 100 |  | > 100
Nc1ccc(-c2nc3ccccc3[nH]2)c(O)c1 | 24.3 | 82.9 | 15.1 | > 100 | 40.4 | > 100 | 31.5 | > 100 | 39.7 | > 100 |  |  | 17 | 52.3 | > 100 | > 100 | 25.2 | 95.5 | 42.3 | > 100
COc1ccc(Nc2ccnc(NCCNc3ccnc4cc(Cl)ccc34)n2)cc1 | 2.27 | 6.06 |  |  | 2.48 | 7.06 | 1.32 | 4.75 | 3.46 | 16.2 | 1.45 | 13.8 | 1.55 | 4.84 | 7.21 | 20.5 | 1.8 | 3.62 | 3.54 | 17.3
O=Nc1c(-c2cccc([N+](=O)[O-])c2)nc2cnccn12 |  | 14.2 |  | > 100 |  | > 100 |  | 49.2 |  | 27.6 |  | 41.4 |  |  |  | > 100 |  | 36.8 |  | 53.8
O=C1c2ccccc2-c2nccc3cc(Cl)nc1c23 |  |  | 48.9 | > 100 | 1.97 | > 100 | 0.665 | 5.24 | 2.21 | > 26.8 | 1.64 | 3 | 0.705 | 3.35 | 35.9 | > 100 | 2.77 | 13 |  | 
CCOC(=O)c1cc2c(n1Cc1cc(OC)cc(OC)c1)-c1oncc1CCC2 | 0.0674 | > 100 |  |  | 0.0311 | 0.0972 | 0.0575 | > 100 | 0.387 | > 100 | 1.77 | > 100 | 0.116 | > 33.7 | 0.108 | > 100 | 0.0714 | > 100 | 0.169 | > 100
Nc1c(C(=O)c2cccc(-c3ccc[n+]([O-])c3)c2)cnn1-c1ccc(F)cc1F | > 25 | > 25 |  |  | > 25 | > 25 | > 25 | > 25 | > 25 | > 25 | > 25 | > 25 | > 25 | > 25 | > 25 | > 25 | > 25 | > 25 | > 25 | > 25
Cn1c(=O)c(Oc2cccc(F)c2)cc2cnc(NC3CCOCC3)nc21 | > 25 | > 25 |  |  | > 25 | > 25 | > 25 | > 25 |  |  | > 22.6 | > 25 | > 25 | > 25 | > 25 | > 25 | > 25 | > 25 | > 25 | > 25
CCN(CC)CC(=O)/C=C/c1ccc(C)cc1 |  | 35.1 |  |  |  | 52 |  | > 100 |  | > 100 |  | 29.3 |  | > 100 |  | 82.5 |  | 32.5 |  | 43.8
CC1=C(C)CC2(SC1)C(=O)c1ccccc1C2=O |  | > 100 |  |  |  | > 100 |  | > 100 |  | > 100 |  | > 100 |  | > 100 |  | > 100 |  | > 100 |  | > 100
COc1ccc(Nc2ncccc2/C=C/C(=O)c2cc(OC)c(OC)c(OC)c2)cc1 | 1.55 | 2.96 | 1.8 | 4.01 |  |  | 0.783 | 3.51 | 2.09 | 5.45 | 1.62 | 3.47 |  |  | 2.72 | 8.56 | 1.56 | 3.3 | 1.56 | 4.22
